The record followed here is patent US5512434A (priority 1992, dated 1996).

In test [1] the target is T1, human phosphatase VHR, wild type, SEQ ID NO:2 (Homo sapiens, UniProt P51452).
T1 construct: fragment containing the entire VHR coding region; glutathione-S-transferase (GST), pGEX-KT (N, cleaved yes); made in house
In kind it is biochemical. As to the method:
(§1) Production and purification of bacterially-expressed VHR. A 0.8 kB SalI-HinDIII fragment containing the entire VHR coding region was blunt-ended with DNA polymerase (Klenow fragment), and BamHI linkers were added. DNA was digested with BamHI, and inserted in-frame into the BamHI site of the pGEX-KT expression vector, described in Hakes et al., Anal. Biochem. 202:293-298 (1992), to produce pGEX-VHR. Plasmid pGEX-VHR was used to express VHR as a fusion protein with glutathione-S-transferase (GST). Expression and purification of GST-VHR was performed as described for a rat brain PTP. Guan et al. (Anal. Biochem. 1991). […] VHR protein, obtained by thrombin cleavage of the purified GST fusion protein, was used for phosphatase assays.
(§2) Phosphatase assays with purified VHR. Dephosphorylation of p-nitrophenylphosphate (pNPP) was performed as described previously. Tonks et al., J. Biol. Chem. 263:6731-6737 (1988).
(§3) Fischer et al. (1991); Hunter et al. (1989).

Test [2] has as its target human phosphatase VHR as GST-VHR fusion protein (glutathione-S-transferase fusion, VHR SEQ ID NO:2) (Homo sapiens, UniProt P51452). The following applies: hydrolysis of pNPP, absorbance at 410 nm. Here is the method:
as §1, §2, §3

Test [3] has as its target highly purified PDGF receptor (baculovirus-expressed).
For test [4], the target named is human phosphatase VHR (clone 27 lysate, pCEV27) (Homo sapiens, UniProt P51452). The conditions noted are these: 3 mM sodium vanadate, 37 C, 30 minutes.
Chain of human phosphatase VHR (clone 27 lysate, pCEV27) (P51452 whole entry): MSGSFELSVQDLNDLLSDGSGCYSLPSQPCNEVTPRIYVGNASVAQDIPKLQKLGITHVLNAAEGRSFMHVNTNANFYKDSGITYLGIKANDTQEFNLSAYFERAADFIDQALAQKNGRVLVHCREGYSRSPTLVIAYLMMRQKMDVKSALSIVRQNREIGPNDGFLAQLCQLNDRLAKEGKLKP
Procedure: Phosphatase assays with bacterial extracts. […] Cultures of E. coli strain Y1091 (50 ml), carrying either pCEV-bek, pCEV-lacZ (pCEV-lacZ vector without an insert), or pCEV27 were grown and induced with 1 mM IPTG as described. […] Cells were collected by centrifugation and lysed in 1 ml of buffer containing 50 mM HEPES, pH 7.4, 1% Triton X-100, and 1 mM phenylmethylsulfonyl fluoride. Lysates were sonicated twice for ten seconds each, clarified by centrifugation, and the supernatants were tested for phosphatase activity.
The reaction was stopped by boiling in sodium dodecyl sulfate polyacrylamide gel electrophoresis (SDS-PAGE) sample buffer, described by Laemmli, Nature 227:680-685 (1970), for three minutes. The Sample was divided into two equal aliquots, resolved by 6.5% SDS-PAGE, and transferred to Immobilon (Milipore).
Immunoblotting was performed with monoclonal anti-pTyr (Upstate Biotechnology, Inc.) or monoclonal anti-β-gal antibodies (Promega) as described previously.

T1 sequence (P51452 whole entry, the tested form may be a part): as the sequence (P51452 whole entry) above
Chain of human phosphatase VHR as GST-VHR fusion protein (glutathione-S-transferase fusion, VHR SEQ ID NO:2) (P51452 whole entry, the tested form may be a part): as the sequence (P51452 whole entry) above

Regarding `C=C1[C@@H](O)[C@@H]2O[C@]3(CC[C@H](/C=C/[C@@H](C)[C@@H]4CC(C)=C[C@@]5(O[C@H](C[C@@](C)(O)C(=O)O)CC[C@H]5O)O4)O3)CC[C@H]2O[C@@H]1[C@@H](O)C[C@H](C)[C@H]1O[C@@]2(CCCCO2)CC[C@H]1C` [Okadaic acid], in test [1], the “inhibitory effect on the enzyme activity (pNPP hydrolysis)” value is reported as “no inhibitory effect”.

For `O=[N+]([O-])c1ccc(OP(=O)(O)O)cc1` [pNPP, p-nitrophenylphosphate], the “Km (pNPP)” value in test [2] is on record as “in the micromolar range”. Besides, the “Km (pNPP) after cleavage of the VHR from GST with thrombin” value in test [1] (compared with GST-VHR fusion, data not shown) is “unchanged”.

In the case of `[F-].[Na+]` [sodium fluoride], the “inhibitory effect on the enzyme activity (pNPP hydrolysis)” value in test [1] is given as “no inhibitory effect”.

VHR (enzyme): the Km of dephosphorylation (anti-pTyr/[125I]-protein A immunoblot, PhosphorImager) in test [3] is less than 100 mM.

With sodium vanadate, the “inhibition of pNPP hydrolysis by the phosphatase” value in test [1] is reported as “completely inhibited”. For the same compound, in test [4], the “inhibition of the reduction of pTyr content of beta-gal-bek by clone 27 lysate” value was “inhibited”.
